Results as given in ChEMBL document CHEMBL1201862, “PubChem BioAssay data set” (2004).
The source made the active and inactive calls.

Assays:
[1] = M. tuberculosis H37Rv growth inhibitors, H37Rv strain (AID 1626); assay type: functional
[2] = biological target: T1, Aminopeptidase N (Plasmodium falciparum FcB1/Columbia, UniProt O96935); experiment: malaria alanyl aminopeptidase activity blockers – biochemical, fluorogenic H-Leu-NHMec substrate, 1536-well (AID 1445); set-up: species or system Plasmodium falciparum 3D7, 3D7
T1 sequence (O96935 whole entry): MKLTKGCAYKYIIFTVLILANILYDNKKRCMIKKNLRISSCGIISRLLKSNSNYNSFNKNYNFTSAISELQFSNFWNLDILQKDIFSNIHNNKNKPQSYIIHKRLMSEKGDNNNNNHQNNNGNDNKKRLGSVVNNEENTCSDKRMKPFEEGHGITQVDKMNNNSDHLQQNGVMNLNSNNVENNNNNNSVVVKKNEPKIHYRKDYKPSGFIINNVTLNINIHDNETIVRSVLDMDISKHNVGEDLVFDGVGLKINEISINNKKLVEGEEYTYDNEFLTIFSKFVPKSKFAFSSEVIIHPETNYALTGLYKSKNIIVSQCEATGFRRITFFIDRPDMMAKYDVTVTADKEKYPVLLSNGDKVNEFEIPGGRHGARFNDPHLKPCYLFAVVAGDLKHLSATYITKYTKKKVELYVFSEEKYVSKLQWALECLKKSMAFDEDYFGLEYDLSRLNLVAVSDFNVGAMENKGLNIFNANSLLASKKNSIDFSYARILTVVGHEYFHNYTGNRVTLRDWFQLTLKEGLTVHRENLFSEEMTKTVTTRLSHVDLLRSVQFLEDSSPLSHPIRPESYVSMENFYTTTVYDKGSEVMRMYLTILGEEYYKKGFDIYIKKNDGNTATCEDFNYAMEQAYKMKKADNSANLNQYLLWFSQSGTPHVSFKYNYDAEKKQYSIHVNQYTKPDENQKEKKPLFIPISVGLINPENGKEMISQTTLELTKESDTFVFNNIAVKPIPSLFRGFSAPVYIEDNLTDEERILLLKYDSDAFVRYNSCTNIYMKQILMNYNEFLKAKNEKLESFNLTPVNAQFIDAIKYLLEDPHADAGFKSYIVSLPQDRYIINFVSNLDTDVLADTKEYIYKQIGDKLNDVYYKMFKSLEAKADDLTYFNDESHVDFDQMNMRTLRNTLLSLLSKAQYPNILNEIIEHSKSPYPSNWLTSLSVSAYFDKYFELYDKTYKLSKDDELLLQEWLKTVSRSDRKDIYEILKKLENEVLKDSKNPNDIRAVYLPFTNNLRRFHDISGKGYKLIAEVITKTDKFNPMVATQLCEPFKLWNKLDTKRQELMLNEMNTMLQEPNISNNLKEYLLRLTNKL

[3] = system: Vero; experiment: viability of Vero cells under compound – cytotoxicity control for flavivirus capping enzyme inhibitors (AID 588742); assay type: functional; details: Chlorocebus sabaeus
[4] = system: Streptococcus; experiment: GAS UMAA2166 growth inhibition – luminescence, BacTiterGlo, counter-screen for streptokinase expression inhibitor project, dose response (AID 1915); assay type: functional, organism-based;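 note: potency for reduction of bacterial viability or growth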
[5] = system: Streptococcus sp. 'group A'; experiment: Streptococcus pyogenes SK(-)GAS viability under kanamycin – luminescence, BacTiterGlo, confirmation, counter-screen for streptokinase expression inhibitor project, dose response (AID 1900); assay type: functional, organism-based
[6] = biological target: T2, Streptokinase A (Streptococcus pyogenes serotype M1, UniProt P10520); experiment: viability-normalized secreted streptokinase activity reduction – plasminogen activation absorbance, OD405, dose response (AID 1914); assay type: functional, Streptococcus pyogenes M1 GAS;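 note: secreted streptokinase activity via plasminogen activation per viability signal from cell pellet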
T2 sequence (P10520 whole entry): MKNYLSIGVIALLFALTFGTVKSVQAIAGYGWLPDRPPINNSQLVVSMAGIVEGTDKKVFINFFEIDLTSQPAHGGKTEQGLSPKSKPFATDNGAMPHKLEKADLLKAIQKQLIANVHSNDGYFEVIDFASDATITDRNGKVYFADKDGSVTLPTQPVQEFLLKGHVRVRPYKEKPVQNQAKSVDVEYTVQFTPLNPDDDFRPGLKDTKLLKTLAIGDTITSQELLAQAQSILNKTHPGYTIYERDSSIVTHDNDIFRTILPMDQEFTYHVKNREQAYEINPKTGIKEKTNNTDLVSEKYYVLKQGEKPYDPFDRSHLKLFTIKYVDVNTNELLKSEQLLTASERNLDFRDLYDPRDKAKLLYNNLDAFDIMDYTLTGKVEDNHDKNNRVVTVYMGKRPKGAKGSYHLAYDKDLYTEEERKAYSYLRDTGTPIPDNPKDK

[7] = biological target: T3, Rac GTPase-activating protein 1 (Homo sapiens, UniProt Q9H0H5); experiment: blockers of MgcRacGAP-driven Rac1 GTP hydrolysis – biochemical, ADP Hunter fluorescence, primary and confirmatory, confirmation (AID 624330); assay type: functional
T3 sequence (Q9H0H5 whole entry): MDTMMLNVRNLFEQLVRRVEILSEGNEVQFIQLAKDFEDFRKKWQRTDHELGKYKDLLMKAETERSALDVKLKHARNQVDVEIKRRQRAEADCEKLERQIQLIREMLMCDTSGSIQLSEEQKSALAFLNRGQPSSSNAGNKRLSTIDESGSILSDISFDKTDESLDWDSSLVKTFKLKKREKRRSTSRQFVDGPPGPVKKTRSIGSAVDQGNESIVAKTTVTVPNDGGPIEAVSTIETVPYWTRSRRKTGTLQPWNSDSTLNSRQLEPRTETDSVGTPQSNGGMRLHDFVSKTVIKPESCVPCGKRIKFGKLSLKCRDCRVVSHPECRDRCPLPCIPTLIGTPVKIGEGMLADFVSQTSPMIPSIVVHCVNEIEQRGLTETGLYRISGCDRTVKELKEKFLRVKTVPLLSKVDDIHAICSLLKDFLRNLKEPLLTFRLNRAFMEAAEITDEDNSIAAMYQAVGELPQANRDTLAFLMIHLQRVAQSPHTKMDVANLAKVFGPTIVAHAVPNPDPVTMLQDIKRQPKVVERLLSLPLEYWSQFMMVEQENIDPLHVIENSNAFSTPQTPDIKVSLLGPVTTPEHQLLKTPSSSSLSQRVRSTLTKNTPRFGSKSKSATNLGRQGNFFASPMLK

[8] = biological target: T4, Mannose-6-phosphate isomerase (Homo sapiens, UniProt P34949); experiment: MPI inhibition at elevated mannose 6-phosphate – biochemical, fluorescence intensity, high mannose 6-phosphate, primary screen (AID 1220)
T4 sequence (P34949 whole entry): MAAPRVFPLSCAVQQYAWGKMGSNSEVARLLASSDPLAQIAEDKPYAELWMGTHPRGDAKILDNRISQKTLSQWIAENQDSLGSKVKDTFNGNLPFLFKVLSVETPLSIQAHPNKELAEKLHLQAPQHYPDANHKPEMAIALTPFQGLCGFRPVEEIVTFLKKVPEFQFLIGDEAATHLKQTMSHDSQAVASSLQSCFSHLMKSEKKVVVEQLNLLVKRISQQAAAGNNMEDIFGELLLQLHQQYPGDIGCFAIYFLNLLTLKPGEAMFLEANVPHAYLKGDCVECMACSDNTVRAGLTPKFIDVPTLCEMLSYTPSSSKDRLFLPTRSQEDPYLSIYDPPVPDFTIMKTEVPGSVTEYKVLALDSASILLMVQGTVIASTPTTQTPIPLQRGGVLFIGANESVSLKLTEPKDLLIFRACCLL

[9] = viability loss in human Jurkat cells – cell-based, luminescence, cytotoxicity control for P. falciparum gametocyte viability project, dose response (AID 1117277); assay type: functional;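 note: potency reflects loss of cellular ATP meaning fewer viable cells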
[10] = viability inhibitors of stage V gametocytes – luminescence, dose response (AID 1117278); assay type: functional, cell-based;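 note: gametocytes exposed to compound for 24 hours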
[11] = biological target: T5, Low molecular weight phosphotyrosine protein phosphatase (Homo sapiens, UniProt P24666); experiment: inhibition of human LMPTP enzyme activity – biochemical, absorbance, pNPP substrate, LMPTP-A isoform, set 2, orthogonal assay, dose response (AID 743308); assay type: functional
T5 sequence (P24666 whole entry): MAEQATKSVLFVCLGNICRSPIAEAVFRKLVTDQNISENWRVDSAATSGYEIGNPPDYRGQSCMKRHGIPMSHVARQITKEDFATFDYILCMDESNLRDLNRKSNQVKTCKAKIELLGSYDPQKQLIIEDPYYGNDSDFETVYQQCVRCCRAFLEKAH

[12] = biological target: T5, Low molecular weight phosphotyrosine protein phosphatase; experiment: inhibition of LMPTP-A enzymatic activity – biochemical, OMFP substrate, fluorescence intensity, set 2, dose response (AID 743307); assay type: functional
[13] = SNU-C1 cell viability reduction, dose response, CellTiter-Glo luminescence (AID 1117323); assay type: functional, cell-based
[14] = cytotoxicity toward HT-29 cells – cell-based, CellTiter-Glo luminescence, IC50, dose response (AID 1117330); assay type: functional
[15] = cytotoxicity toward Colo320 cells – cell-based, CellTiter-Glo luminescence, IC50, dose response (AID 1117334); assay type: functional; details: COLO 320
[16] = RKO cell viability reduction, dose response, CellTiter-Glo luminescence (AID 1117322); assay type: functional
[17] = rise of 4N DNA cells, HeLa – IC50, dose response (AID 1117351); assay type: functional, cell-based
[18] = CellTiter-Glo luminescence survival assay, SW480 colon tumor line, concentration-response curve, half-maximal inhibitory concentration (AID 1117338); assay type: functional
[19] = Reduced DLD-1 viability, concentration-response, CellTiter-Glo luminescence (AID 1117352); assay type: functional
[20] = rise of 2N DNA cells, HeLa – IC50, dose response (AID 1117349); assay type: functional, cell-based
[21] = cytotoxicity toward HCT116 cells – cell-based, CellTiter-Glo luminescence, IC50, dose response (AID 1117332); assay type: functional; details: HCT-116
[22] = toxicity to human hepatoma HepG2 cells – cell-based, cherry-picked samples, cytotoxicity control, dose response (AID 1159577); assay type: functional
[23] = P. falciparum Dd2 growth inhibitors, dose response, SYBR Green, cherry-picked samples (AID 1159567); assay type: functional, cell-based
[24] = biological target: G-protein coupled receptor 183 (Homo sapiens, UniProt P32249); experiment: SAR confirmation of small molecule antagonists of the EBI2 receptor via a luminescent beta-arrestin assa.; assay type: functional
G-protein coupled receptor 183, sequence (P32249 whole entry): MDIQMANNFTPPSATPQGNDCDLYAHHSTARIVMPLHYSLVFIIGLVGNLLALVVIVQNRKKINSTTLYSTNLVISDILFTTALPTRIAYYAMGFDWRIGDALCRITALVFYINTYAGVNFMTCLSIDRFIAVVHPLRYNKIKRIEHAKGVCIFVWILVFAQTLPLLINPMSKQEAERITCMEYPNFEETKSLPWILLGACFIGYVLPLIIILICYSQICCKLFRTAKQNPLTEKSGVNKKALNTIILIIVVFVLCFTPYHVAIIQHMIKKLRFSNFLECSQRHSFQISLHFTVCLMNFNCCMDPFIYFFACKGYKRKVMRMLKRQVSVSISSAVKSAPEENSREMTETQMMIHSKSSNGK

**Q.** Which IC50 [1] does the source give for `N#C/C(=C(/O)CSc1nnc(Cc2cccs2)n1C1CCCCC1)c1nc2ccccc2[nH]1` here?
**A.** Its IC50 is > 100 µM (active).

**Q.** What about the IC50 [2] of the same molecule?
**A.** Its IC50 is 78.9 µM (active).

**Q.** Which CC50 [3] does the source give for `Oc1c(Cl)cc(Cl)c2c1NCCC2` here?
**A.** Its CC50 is 34.5 µM (active).

**Q.** And the EC50 [4]?
**A.** The EC50 was 85.5 µM (active).

**Q.** What about the EC50 [5] of the same molecule?
**A.** The EC50 was 5.36 µM (active).

**Q.** What about the EC50 [6] of the same molecule?
**A.** The EC50 was > 150 µM (not active).

**Q.** What about the IC50 [7] of the same molecule?
**A.** Its IC50 is 31.4 µM (active).

**Q.** What about the IC50 [8] of the same molecule?
**A.** The IC50 was 25.3 µM (active).

**Q.** Which results are given for `CC(C)(C)c1cccc(OCCCSc2ncccn2)c1`?
**A.** IC50 [9]: > 83.3 µM (inactive); IC50 [10]: > 109 µM (inactive)

**Q.** Which IC50 [11] does the source give for `COc1cc2nc(-c3ccccc3)cc(NCCCN3CCCCC3)c2cc1OC` here?
**A.** Its IC50 is > 80 µM (inactive).

**Q.** What about the IC50 [12] of the same molecule?
**A.** Its IC50 is > 80 µM (inactive).

**Q.** With `COc1ccc(-c2ccc3cc(C(=O)O)ccc3c2)cc1C12CC3CC(CC(C3)C1)C2` as the molecule, how does the IC50 [13] read?
**A.** The IC50 was 1.78 µM (active).

**Q.** What about the IC50 [14] of the same molecule?
**A.** The IC50 was 1.12 µM (active).

**Q.** And the IC50 [15]?
**A.** Its IC50 is 0.787 µM (active).

**Q.** And the IC50 [16]?
**A.** Its IC50 is 0.444 µM (active).

**Q.** And the IC50 [17]?
**A.** Its IC50 is > 10 µM (inactive).

**Q.** What about the IC50 [18] of the same molecule?
**A.** The IC50 was 0.405 µM (active).

**Q.** And the IC50 [19]?
**A.** Its IC50 is 0.597 µM (active).

**Q.** What about the IC50 [20] of the same molecule?
**A.** The IC50 was > 10 µM (inactive).

**Q.** What about the IC50 [21] of the same molecule?
**A.** The IC50 was 0.59 µM (active).

**Q.** What does the source list for `c1ccc(-c2cc(OCCCN3CCCCC3)c3ccccc3n2)cc1`?
**A.** IC50 [11]: 19 µM (active); IC50 [12]: 11.5 µM (active)

**Q.** Which AC50 [22] does the source give for `CCc1nc(N2[C@H](C#N)[C@H](c3ccccc3-c3ccccc3F)[C@@H]2CO)sc1C` here?
**A.** Its AC50 is > 39 µM (inactive).

**Q.** What about the AC50 [23] of the same molecule?
**A.** Its AC50 is 8.71 µM (active).

**Q.** Which IC50 [24] does the source give for `O=C(/C=C/c1ccc(Br)cc1F)N1CCN(S(=O)(=O)c2ccc(Br)cc2)CC1` here?
**A.** Its IC50 is 0.0655 µM (active).
